Experimental data reported in patent US7705022B2, “IDO inhibitors and methods of use thereof” (Lankenau Institute for Medical Research, priority 2005, dated 2010).
Blank lines part the entries; values can stand above or below the molecule they belong to.

What was measured:
human IDO = human IDO (Homo sapiens, UniProt P14902); test: IDO inhibition assay (formation of kynurenine, read at 490 nm); assay type: biochemical; settings: for Ki (IDO inhibition data) / Ki: average of two or three trials, inhibitors tested at 200 and 400 μM, L-Trp 200 to 25 μM, N.I. = no inhibition detected
Chain of human IDO (P14902 whole entry): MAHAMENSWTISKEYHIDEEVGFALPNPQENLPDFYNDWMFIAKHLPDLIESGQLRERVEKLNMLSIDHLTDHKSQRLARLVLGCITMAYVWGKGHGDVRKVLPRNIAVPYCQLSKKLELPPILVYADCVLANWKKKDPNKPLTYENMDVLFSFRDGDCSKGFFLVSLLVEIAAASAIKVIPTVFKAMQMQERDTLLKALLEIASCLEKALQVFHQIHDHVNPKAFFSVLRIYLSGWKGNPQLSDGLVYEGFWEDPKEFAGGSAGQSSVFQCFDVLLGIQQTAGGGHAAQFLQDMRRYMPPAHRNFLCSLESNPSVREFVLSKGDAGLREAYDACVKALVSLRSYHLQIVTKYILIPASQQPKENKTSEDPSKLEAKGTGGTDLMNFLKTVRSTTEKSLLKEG

IDO = settings: cited from earlier work; for type of IDO inhibition: literature

Molecule: S=C(S)N1CCCC1 [pyrrolidine dithiocarbamate]
effect on IDO in words (IDO; literature report): inhibits IDO

Molecule: CCCCc1cc2c(cn1)[nH]c1ccccc12 [3-butyl-β-carboline]
Ki (IDO; literature value): 3.3 µM
type of IDO inhibition (IDO): non-competitive

Molecule: c1ccc2c(c1)[nH]c1cnccc12 [β-carboline]
type of IDO inhibition (IDO): non-competitive

The remaining lines, values ahead:

IDO inhibitory activity in words (human IDO): weaker or no inhibition
Ki (IDO inhibition data) (human IDO): N.I.^a
melting point: 148 to 150 °C
Molecule: CNC(=S)NCc1c[nH]c2ccccc12 [Compound 19, N-[l-(Indol-3-yl)methyl]-N′-methyl-thiourea]

IDO inhibitory activity in words (human IDO): complete loss in inhibitory activity
Ki (IDO inhibition data) (human IDO): N.I.
Molecule: CSC(=O)NCc1c[nH]c2ccccc12 [Compound 21, Brassitin, reference compound]

Ki (human IDO): 180 µM
Molecule: N-(Adamant-2-yl)-S-methyl-dithiocarbamate [Compound 6]

IDO inhibitory activity in words (human IDO): significant inhibitory activity
Ki (human IDO): 62.4 µM
Molecule: CSC(=S)NCCc1ccccc1 [Compound 9, N-Phenethyl-S-methyl-dithiocarbamate]
